ChEMBL document CHEMBL6153033, “Design and synthesis of N-(3-cyanothiophen-2-yl)-2-phenoxyacetamide-based α-glucosidase inhibitors” (Bioorg Med Chem Lett, 2025)
Values after ≈ are worked out from the molar mass of the structure shown. Each block holds one compound with its values, some of them ahead of it.

How the values were obtained:
Alpha glucosidase [1] = target: T1, Alpha glucosidase (Homo sapiens, UniProt O43451+P10253+P14410+Q2M2H8); assay: Inhibition of alpha-glucosidase (unknown origin); type: protein assay
Alpha glucosidase [2] = target: T1, Alpha glucosidase; assay: Inhibition of alpha-glucosidase (unknown origin) assessed as inhibition rate at 100 uM relative to control; type: protein assay
[3] = Selectivity index, ratio of IC50 for alpha-amylase (unknown origin) to IC50 for alpha-glucosidase (unknown origin)
[4] = Stability in mouse plasma assessed as compound remaining parent compound after 6 hrs; type: ADME, cell-free; conditions: read-out: Stability
[5] = Aqueous solubility of compound; type: physicochemical
[6] = Stability in mouse plasma assessed as compound remaining parent compound after 1 hrs; type: ADME, cell-free; conditions: read-out: Stability
[7] = Stability in mouse plasma assessed as compound remaining parent compound after 0.5 hrs; type: ADME, cell-free; conditions: read-out: Stability
[8] = Inhibition of alpha-amylase (unknown origin); design: species or system Homo sapiens
[9] = Cytotoxicity against human LO2 cells by MTT assay; type: toxicity, cell-based, L02
Alpha glucosidase [10] = target: T1, Alpha glucosidase; assay: Binding affinity to alpha-glucosidase (unknown origin) assessed as inhibition constant; type: protein assay
Alpha glucosidase [11] = target: T1, Alpha glucosidase; assay: Binding affinity to alpha-glucosidase (unknown origin) assessed as decreased in Vmax using p-nitrophenyl glucopyranoside as substrate at 1 to 16 uM by Lineweaver-Burk plot analysis; type: protein assay; conditions: dose 1-16 µM

- IC50 (Alpha glucosidase [1]): > 50 µM
Compound: Cc1ccc(C=O)c(OCC(=O)Nc2sc3c(c2C#N)CCC(C)C3)c1 (centres undefined)

- inhibition (Alpha glucosidase [2]): 61.5%
- IC50 (Alpha glucosidase [1]): 69.78 µM
Compound: CCOC(=O)C1CCc2sc(NC(=O)COc3ccc(C=O)cc3OC)c(C#N)c21 (centres undefined)

- Selectivity Index [3]: 8.19
- remaining at 6 h [4]: 0%
- IC50 (Alpha glucosidase [1]): 4.69 µM
- solubility [5]: 25 µM (≈ 9.61 µg/mL)
- remaining at 1 h [6]: 35%
- remaining at 0.5 h [7]: 76.5%
- IC50 [8]: 38.5 µM
Compound: COc1ccc(C=O)cc1OCC(=O)Nc1sc2c(c1C#N)CCC(C)C2 (centres undefined)
- CC50 [9]: > 200 µM

- IC50 (Alpha glucosidase [1]): 20.85 µM
Compound: CC1CCc2c(sc(NC(=O)COc3cccc(C=O)c3)c2C#N)C1 (centres undefined)

- Ki (Alpha glucosidase [10]): 5.56 µM
- Selectivity Index [3]: 17.5
- remaining at 6 h [4]: 50.6%
- Activity (Alpha glucosidase [11]): Dose-dependent-effect
- IC50 (Alpha glucosidase [1]): 2.11 µM
- solubility [5]: 25 µM (≈ 10.4 µg/mL)
- remaining at 1 h [6]: 61.3%
- remaining at 0.5 h [7]: 84.3%
- IC50 [8]: 36.9 µM
Compound: COc1cc(C=O)cc(OCC(=O)Nc2sc3c(c2C#N)CCC(C)C3)c1OC (racemic)
- CC50 [9]: > 200 µM

- inhibition (Alpha glucosidase [2]): 86.5%
- IC50 (Alpha glucosidase [1]): 10.35 µM
Compound: COc1cc(C=O)ccc1OCC(=O)Nc1sc2c(c1C#N)CCC(O)C2 (centres undefined)

- inhibition (Alpha glucosidase [2]): 45.6%
Compound: COc1cc(C=O)ccc1OCC(=O)Nc1sc2c(c1C#N)CCCC2=O

- Selectivity Index [3]: 9.2
- remaining at 6 h [4]: 30%
- IC50 (Alpha glucosidase [1]): 7.17 µM
- solubility [5]: 22.2 µM (≈ 8.53 µg/mL)
- remaining at 1 h [6]: 42.7%
- remaining at 0.5 h [7]: 57%
- IC50 [8]: 65.7 µM
Compound: COc1ccc(C=O)c(OCC(=O)Nc2sc3c(c2C#N)CCC(C)C3)c1 (centres undefined)
- CC50 [9]: > 200 µM

- inhibition (Alpha glucosidase [2]): 15.7%
Compound: COc1cc(C=O)ccc1OCC(=O)Nc1sc2c(c1C#N)CCC1(C2)OCCO1

- IC50 (Alpha glucosidase [1]): > 50 µM
Compound: Cc1cccc(C=O)c1OCC(=O)Nc1sc2c(c1C#N)CCC(C)C2 (centres undefined)

- inhibition (Alpha glucosidase [2]): 69.8%
- IC50 (Alpha glucosidase [1]): 60.25 µM
Compound: COC(=O)C1CCCc2sc(NC(=O)COc3ccc(C=O)cc3OC)c(C#N)c21 (centres undefined)

- Selectivity Index [3]: 6.97
- remaining at 6 h [4]: 33.6%
- inhibition (Alpha glucosidase [2]): 93.4%
- IC50 (Alpha glucosidase [1]): 7.42 µM
- solubility [5]: 28.6 µM (≈ 11 µg/mL)
- remaining at 1 h [6]: 72.9%
- remaining at 0.5 h [7]: 83.3%
- IC50 [8]: 51.7 µM
Compound: COc1cc(C=O)ccc1OCC(=O)Nc1sc2c(c1C#N)CCC(C)C2 (centres undefined)
- CC50 [9]: > 200 µM

- IC50 [8]: 70 µM
Compound: C[C@H]1O[C@H](O[C@H]2[C@H](O)[C@@H](O)[C@@H](O[C@H]3[C@H](O)[C@@H](O)C(O)O[C@@H]3CO)O[C@@H]2CO)[C@H](O)[C@@H](O)[C@@H]1N[C@H]1C=C(CO)[C@@H](O)[C@H](O)[C@H]1O (some centres undefined) [ACARBOSE]
- CC50 [9]: > 200 µM

- inhibition (Alpha glucosidase [2]): 67.3%
- IC50 (Alpha glucosidase [1]): 32.38 µM
Compound: COc1cc(C=O)ccc1OCC(=O)Nc1sc2c(c1C#N)CCOC2

- IC50 (Alpha glucosidase [1]): > 50 µM
Compound: CC1CCc2c(sc(NC(=O)COc3ccccc3C=O)c2C#N)C1 (centres undefined)

- IC50 (Alpha glucosidase [1]): 35.55 µM
Compound: Cc1cc(C=O)ccc1OCC(=O)Nc1sc2c(c1C#N)CCC(C)C2 (centres undefined)

- inhibition (Alpha glucosidase [2]): 70.4%
- IC50 (Alpha glucosidase [1]): 35.6 µM
Compound: COc1cc(C=O)ccc1OCC(=O)Nc1sc2c(c1C#N)CCC2

- remaining at 6 h [4]: 28.5%
- inhibition (Alpha glucosidase [2]): 73.9%
- IC50 (Alpha glucosidase [1]): 15.32 µM
- solubility [5]: 28.6 µM (≈ 10.6 µg/mL)
- remaining at 1 h [6]: 51.4%
- remaining at 0.5 h [7]: 78%
Compound: COc1ccc(CNC(=O)Nc2sc3c(c2C#N)CCCC3)c(OC)c1

- IC50 (Alpha glucosidase [1]): 24.28 µM
Compound: CC1CCc2c(sc(NC(=O)COc3ccc(C=O)cc3)c2C#N)C1 (centres undefined)

- inhibition (Alpha glucosidase [2]): 7.31%
Compound: COc1cc(C=O)ccc1OCC(=O)Nc1sc2c(c1C#N)CCCCC2

- inhibition (Alpha glucosidase [2]): 70.4%
- IC50 (Alpha glucosidase [1]): 14.09 µM
Compound: COc1cc(C=O)ccc1OCC(=O)Nc1sc2c(c1C#N)CCCC2
